Data as given in US20240158438A1, “POLYPEPTIDE COMPOUND AND APPLICATION THEREOF” (CHENGDU SINTANOVO BIOTECHNOLOGY CO., LTD., priority 2021, published 2024).
Starred links: 1 amine or outer side, 2 acyl side, 3 side chain; linkers in the order of their positions; H or OH if unused. Non-standard residues stand in square brackets, D forms with d. Residues, ends and D or L forms follow the SMILES beside them. *: point of attachment. Azetidine3carboxylic = O=C(C1CN([*:1])C1)[*:2]; X6 = O=C(C1[C@H]2CC[C@H](C2)N1[*:1])[*:2]; X5 = NC12CC3CC(C1)CC(CC(=O)*)(C3)C2; dBta = N[C@H](Cc1csc2ccccc12)C(=O)O; dCit = NC(=O)NCCC[C@@H](N)C(=O)O; X7 = O=C([C@@]12CNC[C@@H]1C2)*; Ac4c(3-oxa) = NC1(C(=O)O)COC1; Tle = CC(C)(C)[C@H](N)C(=O)O; X1 = N[C@H]1CCC[C@H]1C(=O)*; dNle = CCCC[C@@H](N)C(=O)O; Nle = CCCC[C@H](N)C(=O)O; dAbu = CC[C@@H](N)C(=O)O; Api = NC1(C(=O)O)CCNCC1; X4 = O=C([C@H]1CNCCO1)*; dAze = O=C(O)[C@H]1CCN1

Target: GHSR-1a (Homo sapiens (Human), UniProt Q92847)
Sequence (Q92847 whole entry): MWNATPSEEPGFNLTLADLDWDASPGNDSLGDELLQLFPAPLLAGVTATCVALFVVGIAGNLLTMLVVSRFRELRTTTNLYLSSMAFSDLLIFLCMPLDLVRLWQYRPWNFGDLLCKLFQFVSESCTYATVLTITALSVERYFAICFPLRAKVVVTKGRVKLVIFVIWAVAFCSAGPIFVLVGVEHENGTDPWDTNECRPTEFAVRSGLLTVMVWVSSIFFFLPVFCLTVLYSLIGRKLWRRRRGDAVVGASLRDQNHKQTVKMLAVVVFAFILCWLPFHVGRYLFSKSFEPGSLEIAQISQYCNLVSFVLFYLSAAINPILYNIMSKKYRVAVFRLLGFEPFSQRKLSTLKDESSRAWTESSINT
Experiment: Agonistic activity for GHSR-1a, FLIPR calcium assay
Type: cell-based
Conditions: agonist activity assay, Flp In-CHO-GHSR Stable Pool cells, FLIPR calcium 6 kit; read-out: The activity (IC50) of polypeptide compounds for GHSR-1a
Description: The use of recombinant expression of GHSR provides several advantages; for example, the receptor can be expressed in a determined cell system, so that it is easier to distinguish between the reactions of the compounds with GHSR and the reactions with other receptors. For example, cell lines such as HEK293, COS7 and CHO that […] can be used to express GHSR, and the same cell lines without expression vectors are used as controls.
The activity of GHSR-1a can be measured using different techniques, for example, by detecting the change in the intracellular conformation of GHSR, the change in G-protein coupling activity, and/or the change in intracellular messengers. Techniques such as measuring intracellular Ca^2+ are preferably used to measure the activity of GHSR-1a. Examples of techniques known in the art that can be used to measure Ca^2+ include the use of FLIPR® calcium ion assay kits, among others. The FLIPR® calcium ion assay kits use a calcium ion sensitive indicator and a masking dye to ensure that a researcher carries out high-sensitivity fluorescent screening for G protein-coupled receptors, ion channels and other calcium ion sensitive targets. This experiment used FLIPR calcium 6 assay kits and FLIPR calcium 6-QF assay kits.
• a) Cell line: Flp In-CHO-GHSR Stable Pool; • b) Complete medium: F12K+10% fetal bovine serum+1×penicillin-streptomycin (PS)+600 μg/mL hygromycin B; • c) Cell seeding medium: F12K+10% fetal bovine serum. • d) Assay buffer: 1× HBSS+20 mM HEPES. • e) […] component A: Assay buffer and component A were left at room temperature (RT), 10 mL of buffer was added to component A, and the mixture was vortexed for 1-2 min and stored at −20° C.
• a) Compound stock solutions: the powders from in-house synthesis were made into 10 mM stock solutions in DMSO according to the standard protocol. • b) Compound storage: all compounds in DMSO were stored in room temperature desiccators for short-term storage (at most 4 months). The remaining compounds were left at −20 ° C. for long-term storage.
• a) Flp In-CHO-GHSR Stable Pool cells were cultured in complete medium. • b) The cells were placed in […] cell seeding medium in a 384-well cell culture plate (Corning, 3764) at 7k cells/well and cultured overnight at 37° C. with 5% CO2. • c) 20× component A was thawed at room temperature, diluted with assay buffer to 2×, and left at RT. • d) The Petri dish was taken out of the incubator and equilibrated at room temperature for 10 min. The medium was changed to […]. After the final wash, 20 μL of buffer was kept in each well, 20 μL of 2× component A was then added to each well, and the plate was incubated at 37° C. for 3-5 s. • e) 10 μL of 5× compound was added to the 384-well cell culture plate, and data collection was immediately performed using FLIPR Tetra.
• 1) Z′ factor=1−3×(SDMax+SDMin)/(MeanMax−MeanMin); • 2) CVMax=(SDMax/MeanMax)×100%; • 3) CVMin=(SDMin/MeanMin)×100%; • 4) S/B=Singal/Background; • 5) Calculation formula for IC50: • Y=Bottom+(Top−Bottom)/(1+10^((LogIC50−X)×HillSlope)) • X: log value of compound concentration; Y: Activation % or Inhibition %

Structure (SMILES) | IC50 [nM]
CC(=O)N[C@H](CCCCN)C(=O)N[C@H](Cc1csc2ccccc12)C(=O)N[C@H](Cc1c[nH]c2ccccc12)C(=O)N[C@@H](Cc1ccccc1)C(=O)N[C@H](CCCCN)C(N)=O [Compound 37] (Ac-[dK][dBta][dW]F[dK]-NH2) | 291
NC(=O)[C@H](Cc1ccccc1)NC(=O)[C@@H](Cc1c[nH]c2ccccc12)NC(=O)[C@@H](Cc1csc2ccccc12)NC(=O)CC12CC3CC(CC(N)(C3)C1)C2 [Compound 78] | 78.4
N=C(N)NCCC[C@@H](NC(=O)[C@H](Cc1ccccc1)NC(=O)[C@@H](Cc1c[nH]c2ccccc12)NC(=O)[C@@H](Cc1csc2ccccc12)NC(=O)[C@@]12CNC[C@@H]1C2)C(N)=O [Compound 70] (X7-[dBta][dW]F[dR]-NH2) | 39.7
NC(=O)C1(NC(=O)[C@H](Cc2ccccc2)NC(=O)[C@@H](Cc2c[nH]c3ccccc23)NC(=O)[C@@H](Cc2csc3ccccc23)NC(=O)CC23CC4CC(CC(N)(C4)C2)C3)CCNCC1 [Compound 28] (X5-[dBta][dW]F[Api]-NH2) | 54.1
NCCCC[C@H](N)C(=O)N[C@H](Cc1csc2ccccc12)C(=O)N[C@H](Cc1c[nH]c2ccccc12)C(=O)N[C@@H](Cc1ccccc1)C(=O)N[C@H](CCCCN)C(N)=O [Compound 35] (H-K[dBta][dW]F[dK]-NH2) | 102
CC(=O)NCCCC[C@@H](N)C(=O)N[C@H](Cc1csc2ccccc12)C(=O)N[C@H](Cc1c[nH]c2ccccc12)C(=O)N[C@@H](Cc1ccccc1)C(=O)N[C@H](CCCCN)C(N)=O [Compound 40] (H-[dK](Ac)[dBta][dW]F[dK]-NH2) | 510
CCCC[C@@H](N)C(=O)N[C@H](Cc1csc2ccccc12)C(=O)N[C@H](Cc1c[nH]c2ccccc12)C(=O)N[C@@H](Cc1ccccc1)C(=O)N[C@H](CCCCN)C(N)=O [Compound 49] (H-[dNle][dBta][dW]F[dK]-NH2) | 59.4
CCCC[C@H](N)C(=O)N[C@H](Cc1csc2ccccc12)C(=O)N[C@H](Cc1c[nH]c2ccccc12)C(=O)N[C@@H](Cc1ccccc1)C(=O)N[C@H](CCCCN)C(N)=O [Compound 50] (H-[Nle][dBta][dW]F[dK]-NH2) | 67.2
CC(=O)N[C@H](CCCNC(N)=O)C(=O)N[C@H](Cc1csc2ccccc12)C(=O)N[C@H](Cc1c[nH]c2ccccc12)C(=O)N[C@@H](Cc1ccccc1)C(=O)NC1(C(N)=O)CCNCC1 [Compound 6] (Ac-[dCit][dBta][dW]F[Api]-NH2) | > 1000
CCCC[C@H](N)C(=O)N[C@H](Cc1csc2ccccc12)C(=O)N[C@H](Cc1c[nH]c2ccccc12)C(=O)N[C@@H](Cc1ccccc1)C(=O)NC1(C(N)=O)CCNCC1 [Compound 20] (H-[Nle][dBta][dW]F[Api]-NH2) | 57.4
NCCCC[C@H](N)C(=O)N[C@H](Cc1csc2ccccc12)C(=O)N[C@H](Cc1c[nH]c2ccccc12)C(=O)N[C@@H](Cc1ccccc1)C(=O)NC1(C(N)=O)CCNCC1 [Compound 5] (H-K[dBta][dW]F[Api]-NH2) | > 1000
N=C(N)NCCC[C@@H](NC(=O)[C@H](Cc1ccccc1)NC(=O)[C@@H](Cc1c[nH]c2ccccc12)NC(=O)[C@@H](Cc1csc2ccccc12)NC(=O)C1(N)COC1)C(N)=O [Compound 64] (H-[Ac4c(3-oxa)][dBta][dW]F[dR]-NH2) | 38.1
CC(=O)N[C@@H](CCCCN)C(=O)N[C@H](Cc1csc2ccccc12)C(=O)N[C@H](Cc1c[nH]c2ccccc12)C(=O)N[C@@H](Cc1ccccc1)C(=O)N[C@H](CCCCN)C(N)=O [Compound 38] (Ac-K[dBta][dW]F[dK]-NH2) | 400
NC(=O)[C@H](Cc1ccccc1)NC(=O)[C@@H](Cc1c[nH]c2ccccc12)NC(=O)[C@@H](Cc1csc2ccccc12)NC(=O)C1N[C@@H]2CC[C@H]1C2 (some centres unmarked) [Compound 79] | 33.1
CC(=O)N[C@H](CCCCN)C(=O)N[C@H](Cc1csc2ccccc12)C(=O)N[C@H](Cc1c[nH]c2ccccc12)C(=O)N[C@@H](Cc1ccccc1)C(=O)NC1(C(N)=O)CCNCC1 [Compound 7] (Ac-[dK][dBta][dW]F[Api]-NH2) | 935
CCCC[C@@H](N)C(=O)N[C@H](Cc1csc2ccccc12)C(=O)N[C@H](Cc1c[nH]c2ccccc12)C(=O)N[C@@H](Cc1ccccc1)C(=O)NC1(C(N)=O)CCNCC1 [Compound 19] (H-[dNle][dBta][dW]F[Api]-NH2) | 42.6

The remaining compounds from weak to strong by IC50, led by results:

IC50 [nM] | Structure (SMILES)
32.8 | NC(=O)C1(NC(=O)[C@H](Cc2ccccc2)NC(=O)[C@@H](Cc2c[nH]c3ccccc23)NC(=O)[C@@H](Cc2csc3ccccc23)NC(=O)[C@H]2CNCCO2)CCNCC1 [Compound 27] (X4-[dBta][dW]F[Api]-NH2)
27 | N=C(N)NCCC[C@@H](NC(=O)[C@H](Cc1ccccc1)NC(=O)[C@@H](Cc1c[nH]c2ccccc12)NC(=O)[C@@H](Cc1csc2ccccc12)NC(=O)C1CNC1)C(N)=O [Compound 63] (Azetidine3carboxylic-[dBta][dW]F[dR]-NH2)
23.5 | CC(C)(C)[C@H](N)C(=O)N[C@H](Cc1csc2ccccc12)C(=O)N[C@H](Cc1c[nH]c2ccccc12)C(=O)N[C@@H](Cc1ccccc1)C(=O)NC1(C(N)=O)CCNCC1 [Compound 18] (H-[Tle][dBta][dW]F[Api]-NH2)
22.4 | NCCCC[C@@H](NC(=O)[C@H](Cc1ccccc1)NC(=O)[C@@H](Cc1c[nH]c2ccccc12)NC(=O)[C@@H](Cc1csc2ccccc12)NC(=O)[C@@]12CNC[C@@H]1C2)C(N)=O [Compound 60] (X7-[dBta][dW]F[dK]-NH2)
22.3 | CC(C)[C@@H](N)C(=O)N[C@H](Cc1csc2ccccc12)C(=O)N[C@H](Cc1c[nH]c2ccccc12)C(=O)N[C@@H](Cc1ccccc1)C(=O)N[C@H](CCCCN)C(N)=O [Compound 43] (H-[dV][dBta][dW]F[dK]-NH2)
20.8 | NCCCC[C@@H](NC(=O)[C@H](Cc1ccccc1)NC(=O)[C@@H](Cc1c[nH]c2ccccc12)NC(=O)[C@@H](Cc1csc2ccccc12)NC(=O)[C@H](N)CCCNC(N)=O)C(N)=O [Compound 31] (H-[dCit][dBta][dW]F[dK]-NH2)
20.5 | N=C(N)NCCC[C@@H](NC(=O)[C@H](Cc1ccccc1)NC(=O)[C@@H](Cc1c[nH]c2ccccc12)NC(=O)[C@@H](Cc1csc2ccccc12)NC(=O)[C@@H]1CCC[C@@H]1N)C(N)=O [Compound 61] (X1-[dBta][dW]F[dR]-NH2)
20 | NCCCC[C@@H](NC(=O)[C@H](Cc1ccccc1)NC(=O)[C@@H](Cc1c[nH]c2ccccc12)NC(=O)[C@@H](Cc1csc2ccccc12)NC(=O)[C@H]1CCN1)C(N)=O [Compound 55] (H-[dAze][dBta][dW]F[dK]-NH2)
16.8 | NCCCC[C@@H](NC(=O)[C@H](Cc1ccccc1)NC(=O)[C@@H](Cc1c[nH]c2ccccc12)NC(=O)[C@@H](Cc1csc2ccccc12)NC(=O)C1N[C@@H]2CC[C@H]1C2)C(N)=O (some centres unmarked) [Compound 59] (H-[X6][dBta][dW]F[dK]-NH2)
15.9 | NC(=O)[C@H](Cc1ccccc1)NC(=O)[C@@H](Cc1c[nH]c2ccccc12)NC(=O)[C@@H](Cc1csc2ccccc12)NC(=O)C1CNC1 [Compound 73]
13.3 | NC(=O)C1(NC(=O)[C@H](Cc2ccccc2)NC(=O)[C@@H](Cc2c[nH]c3ccccc23)NC(=O)[C@@H](Cc2csc3ccccc23)NC(=O)C2N[C@@H]3CC[C@H]2C3)CCNCC1 (some centres unmarked) [Compound 29] (H-[X6][dBta][dW]F[Api]-NH2)
9 | CCCC[C@@H](NC(=O)[C@@H](CCCCN)NC(=O)[C@H](Cc1ccccc1)NC(=O)[C@@H](Cc1c[nH]c2ccccc12)NC(=O)[C@@H](Cc1csc2ccccc12)NC(=O)[C@H](N)CC)C(=O)N[C@H](C)C(N)=O [Compound 82] (H-[dAbu][dBta][dW]F[dK][dNle][dA]-NH2)
7.2 | CCCC[C@@H](NC(=O)[C@@H](CCCCN)NC(=O)[C@H](Cc1ccccc1)NC(=O)[C@@H](Cc1c[nH]c2ccccc12)NC(=O)[C@@H](Cc1csc2ccccc12)NC(=O)[C@H](N)CC)C(N)=O [Compound 81] (H-[dAbu][dBta][dW]F[dK][dNle]-NH2)
